ChEMBL document CHEMBL1201861, “Genomics of Drug Sensitity in Cancer screening data, Wellcome Trust Sanger Institute”

What was measured:
Assay in all cases: cells
Format in all cases: functional, cell-based, Homo sapiens
SK-OV-3 = conditions: Homo sapiens, SK-OV-3;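 also: growth inhibition of SK-OV-3 human cells, read out with a cell viability assay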
Description: SANGER: Inhibition of human SK-OV-3 cell growth in a cell viability assay.

COLO-680N = conditions: Homo sapiens, COLO-680N;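 also: cell viability assay used to measure inhibition of COLO-680N cell growth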
Description: SANGER: Inhibition of human COLO-680N cell growth in a cell viability assay.

FaDu = conditions: Homo sapiens, FaDu;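 also: cell viability readout of growth inhibition in FaDu cells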
Description: SANGER: Inhibition of human FADU cell growth in a cell viability assay.

HCC1954 = conditions: Homo sapiens, HCC1954;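 also: growth inhibition of human HCC1954 cells, read out with a cell viability assay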
Description: SANGER: Inhibition of human HCC1954 cell growth in a cell viability assay.

HN = conditions: Homo sapiens, HN
Description: SANGER: Inhibition of human HN cell growth in a cell viability assay.

G-401 = conditions: Homo sapiens, G-401
Description: SANGER: Inhibition of human G-401 cell growth in a cell viability assay.

CAL-12T = conditions: Homo sapiens, CAL-12T;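 also: growth inhibition of human CAL-12T cells, read out with a cell viability assay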
Description: SANGER: Inhibition of human CAL-12T cell growth in a cell viability assay.

OE19 = conditions: Homo sapiens, OE19;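 also: growth inhibition of OE19 cells, measured through a cell viability read-out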
Description: SANGER: Inhibition of human OE19 cell growth in a cell viability assay.

MOLT-13 = conditions: Homo sapiens, MOLT-13;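 also: IC50 for suppression of MOLT-13 cell growth, read out with a cell viability assay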
Description: SANGER: Inhibition of human MOLT-13 cell growth in a cell viability assay.

A2780 = conditions: Homo sapiens, A2780;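 also: growth inhibition of A2780 cells, read out with a cell viability assay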
Description: SANGER: Inhibition of human A2780 cell growth in a cell viability assay.

HT-1080 = conditions: Homo sapiens, HT-1080
Description: SANGER: Inhibition of human HT-1080 cell growth in a cell viability assay.

HOS = conditions: Homo sapiens, HOS;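 also: growth inhibition of human HOS cells, read out with a cell viability assay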
Description: SANGER: Inhibition of human HOS cell growth in a cell viability assay.

NCI-H460 = conditions: Homo sapiens, NCI-H460;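 also: cell viability assay scoring growth inhibition of human NCI-H460 cells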
Description: SANGER: Inhibition of human NCI-H460 cell growth in a cell viability assay.

NCI-H1792 = conditions: Homo sapiens, NCI-H1792;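 also: growth inhibition of human NCI-H1792 cells, read out as cell viability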
Description: SANGER: Inhibition of human NCI-H1792 cell growth in a cell viability assay.

NCI-H1623 = conditions: Homo sapiens, NCI-H1623;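 also: cell viability assay used as the read-out for growth inhibition of NCI-H1623 cells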
Description: SANGER: Inhibition of human NCI-H1623 cell growth in a cell viability assay.

CaR-1 = conditions: Homo sapiens, CaR-1;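 also: growth inhibition of human CaR-1 cancer cells, read out with a cell viability assay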
Description: SANGER: Inhibition of human CaR-1 cell growth in a cell viability assay.

CAL-54 = conditions: Homo sapiens, CAL-54;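 also: growth inhibition of CAL-54 cells, read out by a viability measurement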
Description: SANGER: Inhibition of human CAL-54 cell growth in a cell viability assay.

NCI-H2122 = conditions: Homo sapiens, NCI-H2122;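 also: growth inhibition of the cells, read out with a cell viability assay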
Description: SANGER: Inhibition of human NCI-H2122 cell growth in a cell viability assay.

NB14 = conditions: Homo sapiens, NB14;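 also: growth inhibition of NB14 cells measured with a cell viability assay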
Description: SANGER: Inhibition of human NB14 cell growth in a cell viability assay.

ChaGo-K-1 = conditions: Homo sapiens, ChaGo-K-1;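 also: growth inhibition of ChaGo-K-1 cells, read out with a cell viability assay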
Description: SANGER: Inhibition of human ChaGo-K-1 cell growth in a cell viability assay.

Hs-578T = conditions: Homo sapiens, Hs-578T
Description: SANGER: Inhibition of human Hs-578-T cell growth in a cell viability assay.

NCI-H1693 = conditions: Homo sapiens, NCI-H1693;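 also: growth inhibition of the human cell line, read out with a cell viability assay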
Description: SANGER: Inhibition of human NCI-H1693 cell growth in a cell viability assay.

Capan-2 = conditions: Homo sapiens, Capan-2;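 also: Capan-2 cell growth inhibition, read out with a viability assay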
Description: SANGER: Inhibition of human Capan-2 cell growth in a cell viability assay.

MDA-MB-157 = conditions: Homo sapiens, MDA-MB-157
Description: SANGER: Inhibition of human MDA-MB-157 cell growth in a cell viability assay.

UMUC3 = conditions: Homo sapiens, UMUC3;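 also: growth inhibition of human UM-UC-3 cells, read out with a cell viability assay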
Description: SANGER: Inhibition of human UM-UC-3 cell growth in a cell viability assay.

T-24 = conditions: Homo sapiens, T-24;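 also: growth inhibition of T-24 cells, read out with a cell viability assay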
Description: SANGER: Inhibition of human T-24 cell growth in a cell viability assay.

MC-IXC = conditions: Homo sapiens, MC-IXC;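 also: growth inhibition of MC-IXC cells, read out with a cell viability assay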
Description: SANGER: Inhibition of human MC-IXC cell growth in a cell viability assay.

SW-620 = conditions: Homo sapiens, SW-620;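 also: growth inhibition of human SW-620 cells, measured by a cell viability assay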
Description: SANGER: Inhibition of human SW620 cell growth in a cell viability assay.

RVH-421 = conditions: Homo sapiens, RVH-421
Description: SANGER: Inhibition of human RVH-421 cell growth in a cell viability assay.

DMS-273 = conditions: Homo sapiens, DMS-273
Description: SANGER: Inhibition of human DMS-273 cell growth in a cell viability assay.

GMS-10 = conditions: Homo sapiens, GMS-10;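 also: growth inhibition of GMS-10 cells, read out as cell viability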
Description: SANGER: Inhibition of human GMS-10 cell growth in a cell viability assay.

COLO-792 = conditions: Homo sapiens, COLO-792
Description: SANGER: Inhibition of human COLO-792 cell growth in a cell viability assay.

HT55 = conditions: Homo sapiens, HT55;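 also: cell viability readout measuring growth inhibition of human HT55 cells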
Description: SANGER: Inhibition of human HT55 cell growth in a cell viability assay.

NCI-H522 = conditions: Homo sapiens, NCI-H522;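 also: cell viability assay measuring growth inhibition of human NCI-H522 cells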
Description: SANGER: Inhibition of human NCI-H522 cell growth in a cell viability assay.

KYSE-450 = conditions: Homo sapiens, KYSE-450;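 also: cell growth inhibition measured by a viability assay in human KYSE-450 cells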
Description: SANGER: Inhibition of human KYSE-450 cell growth in a cell viability assay.

KYSE-180 = conditions: Homo sapiens, KYSE-180;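 also: growth inhibition of KYSE-180 cells, read out with a cell viability assay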
Description: SANGER: Inhibition of human KYSE-180 cell growth in a cell viability assay.

Structure (SMILES) | IC50 (SK-OV-3) [µM] | IC50 (COLO-680N) [µM] | IC50 (FaDu) [µM] | IC50 (HCC1954) [µM] | IC50 (HN) [µM] | IC50 (G-401) [µM] | IC50 (CAL-12T) [µM] | IC50 (OE19) [µM] | IC50 (MOLT-13) [µM] | IC50 (A2780) [µM] | IC50 (HT-1080) [µM] | IC50 (HOS) [µM] | IC50 (NCI-H460) [µM] | IC50 (NCI-H1792) [µM] | IC50 (NCI-H1623) [µM] | IC50 (CaR-1) [µM] | IC50 (CAL-54) [µM] | IC50 (NCI-H2122) [µM] | IC50 (NB14) [µM] | IC50 (ChaGo-K-1) [µM] | other results
COc1cc2c(Nc3ccc(NC(=O)c4ccccc4)cc3)ncnc2cc1OCCCN1CCOCC1 | > 4 | > 4 | > 4 | > 4 | 1.93 | > 4 | > 4 | > 4 | 1.57 | > 4 | > 4 | > 4 | 3.07 | > 4 | > 4 | > 4 | > 4 | > 4 | 1.56 | > 4 | IC50 (Hs-578T): > 4 µM; IC50 (NCI-H1693): > 4 µM; IC50 (Capan-2): > 4 µM; IC50 (MDA-MB-157): > 4 µM; IC50 (UMUC3): > 4 µM; IC50 (T-24): > 4 µM; IC50 (MC-IXC): > 4 µM; IC50 (SW-620): > 4 µM; IC50 (RVH-421): > 4 µM; IC50 (DMS-273): > 4 µM; IC50 (GMS-10): > 4 µM; IC50 (COLO-792): > 4 µM; IC50 (HT55): > 4 µM; IC50 (NCI-H522): > 4 µM; IC50 (KYSE-450): > 4 µM; IC50 (KYSE-180): > 4 µM
Cn1cnc2c(F)c(Nc3ccc(Br)cc3Cl)c(C(=O)NOCCO)cc21 [SELUMETINIB] | > 4 | > 4 | > 4 | > 4 | 1 | > 4 | > 4 | > 4 | > 4 | > 4 | 2.43 | > 4 | 2.8 | > 4 | > 4 | > 4 | 1.49 | > 4 | > 4 | > 4 | IC50 (Hs-578T): > 4 µM; IC50 (NCI-H1693): > 4 µM; IC50 (Capan-2): > 4 µM; IC50 (MDA-MB-157): > 4 µM; IC50 (T-24): > 4 µM; IC50 (MC-IXC): > 4 µM; IC50 (SW-620): 0.302 µM; IC50 (RVH-421): 0.279 µM; IC50 (DMS-273): > 4 µM; IC50 (GMS-10): > 4 µM; IC50 (COLO-792): 1.19 µM; IC50 (HT55): > 4 µM; IC50 (NCI-H522): > 4 µM; IC50 (KYSE-450): > 4 µM; IC50 (KYSE-180): > 4 µM
